The results in this text go back to the Kinase Knowledgebase extract (Sharma et al. 2016).

Among the targets are CDK2 (human) (UniProt P24941); MAPK14 (human) (UniProt Q16539); PIK3CA (human) (UniProt P42336); PIK3CG (human) (UniProt P48736).
What all share (assay): Enzyme Assay

Sequence of MAPK14 (human) (Q16539 whole entry, looked up): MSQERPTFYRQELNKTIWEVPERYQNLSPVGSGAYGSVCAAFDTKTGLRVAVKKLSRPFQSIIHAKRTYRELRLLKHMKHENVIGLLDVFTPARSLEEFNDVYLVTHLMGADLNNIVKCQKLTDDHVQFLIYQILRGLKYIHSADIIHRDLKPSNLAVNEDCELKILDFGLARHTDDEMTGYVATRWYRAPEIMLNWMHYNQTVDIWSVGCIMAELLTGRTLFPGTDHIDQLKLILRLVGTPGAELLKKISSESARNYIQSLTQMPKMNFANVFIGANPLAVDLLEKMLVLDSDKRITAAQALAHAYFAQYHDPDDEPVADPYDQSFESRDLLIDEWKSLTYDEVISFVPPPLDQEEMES
Sequence of PIK3CA (human) (P42336 whole entry, looked up): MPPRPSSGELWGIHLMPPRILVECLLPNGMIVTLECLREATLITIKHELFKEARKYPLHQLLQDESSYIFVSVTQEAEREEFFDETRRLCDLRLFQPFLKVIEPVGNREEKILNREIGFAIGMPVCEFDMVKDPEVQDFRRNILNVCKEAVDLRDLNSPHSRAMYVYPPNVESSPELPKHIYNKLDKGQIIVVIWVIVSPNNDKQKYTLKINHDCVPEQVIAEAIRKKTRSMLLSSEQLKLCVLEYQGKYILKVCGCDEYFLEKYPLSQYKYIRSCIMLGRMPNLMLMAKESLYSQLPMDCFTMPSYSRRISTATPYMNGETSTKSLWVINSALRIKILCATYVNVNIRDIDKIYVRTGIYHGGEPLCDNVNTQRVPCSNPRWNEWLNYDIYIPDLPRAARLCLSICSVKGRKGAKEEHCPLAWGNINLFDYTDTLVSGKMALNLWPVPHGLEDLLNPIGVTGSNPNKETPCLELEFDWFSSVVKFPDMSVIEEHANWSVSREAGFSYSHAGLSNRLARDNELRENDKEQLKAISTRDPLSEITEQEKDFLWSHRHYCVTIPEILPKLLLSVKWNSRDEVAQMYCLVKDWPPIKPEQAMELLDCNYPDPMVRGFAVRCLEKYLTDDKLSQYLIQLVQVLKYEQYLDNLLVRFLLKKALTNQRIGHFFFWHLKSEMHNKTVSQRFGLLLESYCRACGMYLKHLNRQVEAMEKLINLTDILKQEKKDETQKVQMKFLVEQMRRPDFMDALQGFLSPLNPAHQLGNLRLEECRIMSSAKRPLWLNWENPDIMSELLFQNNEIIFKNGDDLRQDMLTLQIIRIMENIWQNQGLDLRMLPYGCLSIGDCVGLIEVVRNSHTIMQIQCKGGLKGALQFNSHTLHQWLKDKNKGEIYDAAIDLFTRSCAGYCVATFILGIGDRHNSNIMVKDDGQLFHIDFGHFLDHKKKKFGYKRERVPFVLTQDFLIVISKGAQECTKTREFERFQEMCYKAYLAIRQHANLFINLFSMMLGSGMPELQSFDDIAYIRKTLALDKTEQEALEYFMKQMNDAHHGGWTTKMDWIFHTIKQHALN
Sequence of PIK3CG (human) (P48736 whole entry, looked up): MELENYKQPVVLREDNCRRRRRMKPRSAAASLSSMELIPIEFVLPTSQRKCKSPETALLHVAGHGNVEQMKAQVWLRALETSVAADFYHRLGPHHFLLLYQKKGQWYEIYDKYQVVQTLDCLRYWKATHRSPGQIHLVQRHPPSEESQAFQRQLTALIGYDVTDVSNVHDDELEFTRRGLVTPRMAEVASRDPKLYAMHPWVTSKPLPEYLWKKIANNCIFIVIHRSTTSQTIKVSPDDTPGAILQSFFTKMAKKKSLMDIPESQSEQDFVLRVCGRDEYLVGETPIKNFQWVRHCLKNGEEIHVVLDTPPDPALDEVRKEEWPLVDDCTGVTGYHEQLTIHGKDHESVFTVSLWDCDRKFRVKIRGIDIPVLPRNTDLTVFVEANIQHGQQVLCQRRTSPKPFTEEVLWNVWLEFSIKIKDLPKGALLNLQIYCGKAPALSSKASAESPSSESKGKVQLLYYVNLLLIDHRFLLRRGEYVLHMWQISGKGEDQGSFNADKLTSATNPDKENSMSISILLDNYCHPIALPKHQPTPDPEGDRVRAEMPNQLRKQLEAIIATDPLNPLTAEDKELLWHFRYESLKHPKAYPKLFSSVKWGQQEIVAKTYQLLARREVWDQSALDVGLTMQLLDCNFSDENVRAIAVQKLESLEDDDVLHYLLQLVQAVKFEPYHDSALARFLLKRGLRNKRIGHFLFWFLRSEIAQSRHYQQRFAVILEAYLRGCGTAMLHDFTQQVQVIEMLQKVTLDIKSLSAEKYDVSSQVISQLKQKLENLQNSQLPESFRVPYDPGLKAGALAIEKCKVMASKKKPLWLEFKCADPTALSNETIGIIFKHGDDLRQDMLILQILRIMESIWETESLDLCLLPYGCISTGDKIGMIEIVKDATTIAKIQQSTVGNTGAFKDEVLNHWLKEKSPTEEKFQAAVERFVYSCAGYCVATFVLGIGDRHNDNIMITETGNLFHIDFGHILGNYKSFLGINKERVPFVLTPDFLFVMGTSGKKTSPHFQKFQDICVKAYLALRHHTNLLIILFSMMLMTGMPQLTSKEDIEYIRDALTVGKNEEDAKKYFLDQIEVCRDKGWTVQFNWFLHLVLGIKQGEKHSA

Broadly, the IC50 is the concentration that inhibits the measured activity by half. Turning to `COc1cc2c(cc1OCC1CCCCN1C)ncc1c3ccc(C#N)cc3[nH]c21` (stereo not drawn), the half-inhibitory concentration (IC50) was 1.1 µM against CDK2 (human) and over 50 µM at MAPK14 (human).

As for `COc1cc2c(cc1OC1CCN(C)CC1)ncc1c3ccc(C#N)cc3[nH]c21`, the half-inhibitory concentration (IC50) is 5.7 µM against CDK2 (human) and 6.82 µM against MAPK14 (human).

In the case of `COc1cc2ncc3c4ccc(C#N)cc4[nH]c3c2cc1OC`, the half-maximal inhibitory concentration (IC50) against PIK3CA (human) was 1.7 µM; against PIK3CG (human), 3.4 µM; at CDK2 (human) it was 0.599 µM; against MAPK14 (human), over 88.8 µM.

With `COc1cc2c(cc1OCCN(C)C)ncc1c3ccc(C#N)cc3[nH]c21`, the IC50 against CDK2 (human) was 1.01 µM; at MAPK14 (human) it was over 49.4 µM.

As to `COc1cc2c(cc1OCCCN(C)C)ncc1c3ccc(C#N)cc3[nH]c21`, the IC50 is over 7.25 µM against PIK3CA (human), over 7.25 µM against PIK3CG (human), 4.35 µM against CDK2 (human) and over 36.2 µM against MAPK14 (human).

As to `COCCOc1cc2ncc3c4ccc(C#N)cc4[nH]c3c2cc1OC`, the concentration for half-maximal inhibition (IC50) at CDK2 (human) is 1.21 µM; against MAPK14 (human) it was over 45.6 µM.

Regarding `COc1cc2c(cc1OCCCN1CCN(C)CC1)ncc1c3ccc(C#N)cc3[nH]c21`, the IC50 on CDK2 (human) was 0.479 µM; on MAPK14 (human), over 47 µM.
